In patent US11390604B2 (Hoffmann-La Roche Inc., priority 2019, dated 2022):
Counter-ions that a name gives are not always drawn.

Tested on: Acinetobacter baumannii ATCC 17961
Test: Antimicrobial susceptibility testing: 90% growth inhibitory concentration (IC90) determination
Assay type: cell-based
Settings: ATCC17961, Acinetobacter baumannii ATCC 17961, Iso-Sensitest broth, read-out: ATCC 17961 IC90
Outline: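 Broth microdilution in Iso-Sensitest medium, twofold series (e.g. 50 to 0.097 μM final), ~5×10^5 CFU/ml inoculum, 35±2 °C. OD600 read every 20 min over 16 h. IC90 derived from growth inhibition during logarithmic phase.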

IC90 [nM] | SMILES
678 | Cn1c(-c2cn(C(CO)CCl)nc2C(F)(F)F)cnc1C(=O)Nc1ccc(C(=O)N2CCN(C(=O)C3CCNCC3)CC2)c(Cl)c1 (stereo not shown) [Example 103, 5-[1-(1-chloro-3-hydroxypropan-2-yl)-3-(trifluoromethyl)pyrazol-4-yl]-N-[3-chloro-4-[4-(piperidine-4-carbonyl)piperazine-1-carbonyl]phenyl]-1-methylimidazole-2-carboxamide;hydrochloride]
1020 | Cn1c(-c2cn(CCC(C)(C)O)nc2C(F)(F)F)cnc1C(=O)Nc1ccc(C(=O)N2CCN(C(=O)C3CCNCC3)CC2)c(Cl)c1 [Example 104, N-[3-chloro-4-[4-(piperidine-4-carbonyl)piperazine-1-carbonyl]phenyl]-5-[1-(3-hydroxy-3-methylbutyl)-3-(trifluoromethyl)pyrazol-4-yl]-1-methylimidazole-2-carboxamide;hydrochloride]
1610 | Cn1c(-c2cn(CC3(CO)CC(C)(Cl)C3)nc2C(F)(F)F)cnc1C(=O)Nc1ccc(C(=O)N2CCN(C(=O)C3CCNCC3)CC2)c(Cl)c1 (stereo not shown) [Example 105, 5-[1-[[3-chloro-1-(hydroxymethyl)-3-methylcyclobutyl]methyl]-3-(trifluoromethyl)pyrazol-4-yl]-N-[3-chloro-4-[4-(piperidine-4-carbonyl)piperazine-1-carbonyl]phenyl]-1-methylimidazole-2-carboxamide;hydrochloride]
848 | Cc1nc(Cn2cc(-c3cnc(C(=O)Nc4ccc(C(=O)N5CCN(C(=O)C6CCNCC6)CC5)c(Cl)c4)n3C)c(C(F)(F)F)n2)no1 [Example 106, N-[3-chloro-4-[4-(piperidine-4-carbonyl)piperazine-1-carbonyl]phenyl]-1-methyl-5-[1-[(5-methyl-1,2,4-oxadiazol-3-yl)methyl]-3-(trifluoromethyl)pyrazol-4-yl]imidazole-2-carboxamide;hydrochloride]
444 | Cn1c(-c2cn(CC3(C)CSC3)nc2C(F)(F)F)cnc1C(=O)Nc1ccc(C(=O)N2CCN(C(=O)C3CCNCC3)CC2)c(Cl)c1 [Example 107, N-[3-chloro-4-[4-(piperidine-4-carbonyl)piperazine-1-carbonyl]phenyl]-1-methyl-5-[1-[(3-methylthietan-3-yl)methyl]-3-(trifluoromethyl)pyrazol-4-yl]imidazole-2-carboxamide;hydrochloride]
248 | Cn1c(-c2cn(C3CC4(CC4)C3)nc2C(F)(F)F)cnc1C(=O)Nc1ccc(C(=O)N2CCN(C(=O)C3CCNCC3)CC2)c(Cl)c1 [Example 108, N-[3-chloro-4-[4-(piperidine-4-carbonyl)piperazine-1-carbonyl]phenyl]-1-methyl-5-[1-spiro[2.3]hexan-5-yl-3-(trifluoromethyl)pyrazol-4-yl]imidazole-2-carboxamide;hydrochloride]
473 | Cn1c(-c2cn(CCOC(F)F)nc2C(F)(F)F)cnc1C(=O)Nc1ccc(C(=O)N2CCN(C(=O)C3CCNCC3)CC2)c(Cl)c1 [Example 109, N-[3-chloro-4-[4-(piperidine-4-carbonyl)piperazine-1-carbonyl]phenyl]-5-[1-[2-(difluoromethoxy)ethyl]-3-(trifluoromethyl)pyrazol-4-yl]-1-methylimidazole-2-carboxamide;hydrochloride]
260 | Cn1c(-c2cn(CC3CC3(F)F)nc2C(F)(F)F)cnc1C(=O)Nc1ccc(C(=O)N2CCN(C(=O)C3CCNCC3)CC2)c(Cl)c1 (stereo not shown) [Example 110, N-[3-chloro-4-[4-(piperidine-4-carbonyl)piperazine-1-carbonyl]phenyl]-5-[1-[(2,2-difluorocyclopropyl)methyl]-3-(trifluoromethyl)pyrazol-4-yl]-1-methylimidazole-2-carboxamide;hydrochloride]
344 | Cn1c(-c2cn(CC3CC(F)(F)C3)nc2C(F)(F)F)cnc1C(=O)Nc1ccc(C(=O)N2CCN(C(=O)C3CCNCC3)CC2)c(Cl)c1 [Example 111, N-[3-chloro-4-[4-(piperidine-4-carbonyl)piperazine-1-carbonyl]phenyl]-5-[1-[(3,3-difluorocyclobutyl)methyl]-3-(trifluoromethyl)pyrazol-4-yl]-1-methylimidazole-2-carboxamide;hydrochloride]
274 | Cn1c(-c2cn(CC3CC3)nc2C(F)(F)F)cnc1C(=O)Nc1ccc(C(=O)N2CCN(C(=O)C3CCNCC3)CC2)c(Cl)c1 [Example 112, N-[3-chloro-4-[4-(piperidine-4-carbonyl)piperazine-1-carbonyl]phenyl]-5-[1-(cyclopropylmethyl)-3-(trifluoromethyl)pyrazol-4-yl]-1-methylimidazole-2-carboxamide;hydrochloride]
187 | Cn1c(-c2cn(CC3CCC3)nc2C(F)(F)F)cnc1C(=O)Nc1ccc(C(=O)N2CCN(C(=O)C3CCNCC3)CC2)c(Cl)c1 [Example 113, N-[3-chloro-4-[4-(piperidine-4-carbonyl)piperazine-1-carbonyl]phenyl]-5-[1-(cyclobutylmethyl)-3-(trifluoromethyl)pyrazol-4-yl]-1-methylimidazole-2-carboxamide;hydrochloride]
339 | CCn1cc(-c2cnc(C(=O)Nc3ccc(C(=O)N4CCN(C(=O)C5CCNCC5)CC4)c(Cl)c3)n2C)c(C(F)(F)F)n1 [Example 114, N-[3-chloro-4-[4-(piperidine-4-carbonyl)piperazine-1-carbonyl]phenyl]-5-[1-ethyl-3-(trifluoromethyl)pyrazol-4-yl]-1-methylimidazole-2-carboxamide;hydrochloride]
1250 | Cn1cc(-c2cnc(C(=O)Nc3ccc(C(=O)N4CCN(C(=O)C5CCNCC5)CC4)c(Cl)c3)n2C)c(C(F)(F)F)n1 [Example 115, N-[3-chloro-4-[4-(piperidine-4-carbonyl)piperazine-1-carbonyl]phenyl]-1-methyl-5-[1-methyl-3-(trifluoromethyl)pyrazol-4-yl]imidazole-2-carboxamide;hydrochloride]
487 | Cn1c(-c2cn(C(F)F)nc2C(F)(F)F)cnc1C(=O)Nc1ccc(C(=O)N2CCN(C(=O)C3CCNCC3)CC2)c(Cl)c1 [Example 116, N-[3-chloro-4-[4-(piperidine-4-carbonyl)piperazine-1-carbonyl]phenyl]-5-[1-(difluoromethyl)-3-(trifluoromethyl)pyrazol-4-yl]-1-methylimidazole-2-carboxamide;hydrochloride]
427 | CC(C#N)n1cc(-c2cnc(C(=O)Nc3ccc(C(=O)N4CCN(C(=O)C5CCNCC5)CC4)c(Cl)c3)n2C)c(C(F)(F)F)n1 (stereo not shown) [Example 117, N-[3-chloro-4-[4-(piperidine-4-carbonyl)piperazine-1-carbonyl]phenyl]-5-[1-(1-cyanoethyl)-3-(trifluoromethyl)pyrazol-4-yl]-1-methylimidazole-2-carboxamide;formic acid]
884 | Cc1cc(NC(=O)c2ncc(-c3cn(CC#N)nc3C(F)(F)F)n2C)cc(F)c1C(=O)N1CCN(C(=O)[C@H]2C[C@H](N)C2)CC1 [Example 118, N-[4-[4-(3-aminocyclobutanecarbonyl)piperazine-1-carbonyl]-3-fluoro-5-methylphenyl]-5-[1-(cyanomethyl)-3-(trifluoromethyl)pyrazol-4-yl]-1-methylimidazole-2-carboxamide]
769 | Cc1cc(NC(=O)c2ncc(-c3cn(CC#N)nc3C(F)(F)F)n2C)cc(F)c1C(=O)N1CCN(C(=O)[C@H]2CC[C@@H](N)C2)CC1 [Example 119, N-[4-[4-[(1S,3R)-3-aminocyclopentanecarbonyl]piperazine-1-carbonyl]-3-fluoro-5-methylphenyl]-5-[1-(cyanomethyl)-3-(trifluoromethyl)pyrazol-4-yl]-1-methylimidazole-2-carboxamide]
2250 | Cc1cc(NC(=O)c2ncc(-c3cn(CC#N)nc3C(F)(F)F)n2C)cc(F)c1C(=O)N1CCN(C(=O)C2(O)CCCNC2)CC1 (stereo not shown) [Example 120, 5-[1-(cyanomethyl)-3-(trifluoromethyl)pyrazol-4-yl]-N-[3-fluoro-4-[4-(3-hydroxypiperidine-3-carbonyl)piperazine-1-carbonyl]-5-methylphenyl]-1-methylimidazole-2-carboxamide]
970 | Cc1cc(NC(=O)c2ncc(-c3cn(CC#N)nc3C(F)(F)F)n2C)cc(F)c1C(=O)N1CCN(C(=O)[C@H](C)N)CC1 [Example 121, N-[4-[4-[(2S)-2-aminopropanoyl]piperazine-1-carbonyl]-3-fluoro-5-methylphenyl]-5-[1-(cyanomethyl)-3-(trifluoromethyl)pyrazol-4-yl]-1-methylimidazole-2-carboxamide]
978 | Cc1cc(NC(=O)c2ncc(-c3cn(CC#N)nc3C(F)(F)F)n2C)cc(F)c1C(=O)N1CCN(C(=O)[C@H]2CCNC2)CC1 [Example 122, 5-[1-(cyanomethyl)-3-(trifluoromethyl)pyrazol-4-yl]-N-[3-fluoro-5-methyl-4-[4-[(3S)-pyrrolidine-3-carbonyl]piperazine-1-carbonyl]phenyl]-1-methylimidazole-2-carboxamide]
1800 | Cc1nc(Cn2cc(-c3cnc(C(=O)Nc4ccc(C(=O)NC5CC(N)C5)c(Cl)c4)n3C)c(C(F)(F)F)n2)cs1 (stereo not shown) [Example 124, N-[4-[(3-aminocyclobutyl)carbamoyl]-3-chlorophenyl]-1-methyl-5-[1-[(2-methyl-1,3-thiazol-4-yl)methyl]-3-(trifluoromethyl)pyrazol-4-yl]imidazole-2-carboxamide;hydrochloride]
480 | Cn1c(-c2cn(C3CCC3)nc2C(F)(F)F)cnc1C(=O)Nc1ccc(C(=O)NC2CC(N)C2)c(Cl)c1 (stereo not shown) [Example 125, N-[4-[(3-aminocyclobutyl)carbamoyl]-3-chlorophenyl]-5-[1-cyclobutyl-3-(trifluoromethyl)pyrazol-4-yl]-1-methylimidazole-2-carboxamide;hydrochloride]
